This is an account of results in patent publication US8344004B2, “Cyclic pyridyl-N-[1,3,4]-thiadiazol-2-yl-benzene sulfonamides, processes for their preparation and their use as pharmaceuticals” (Sanofi, priority 2007, dated 2013).

Read-outs that look alike come from different tables or passages of the source.

The target in one assay is T1, human PPARgamma (Homo sapiens, UniProt P37231).
T1 construct: amino acids I152-Y475; expressed in transfected cells; host or cells: HEK cells, transiently transfected with pcDNA3-GAL4-humanPPARgammaLBD
T1 sequence (P37231 182-477 isoform P37231-2 limits assumed): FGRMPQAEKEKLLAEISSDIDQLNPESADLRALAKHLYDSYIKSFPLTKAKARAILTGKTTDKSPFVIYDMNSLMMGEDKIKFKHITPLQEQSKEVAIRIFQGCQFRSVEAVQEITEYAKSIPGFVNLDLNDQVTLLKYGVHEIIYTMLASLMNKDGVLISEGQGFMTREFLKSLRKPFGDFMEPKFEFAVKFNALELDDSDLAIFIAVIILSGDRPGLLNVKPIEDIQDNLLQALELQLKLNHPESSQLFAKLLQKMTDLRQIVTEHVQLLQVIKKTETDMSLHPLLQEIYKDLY
The assay is described as follows: Cellular PPARgamma assay (transiently transfected HEK cells, luciferase reporter). It counts as cell-based. The following applies: GAL4-humanPPARgammaLBD. From the text: A transient transfection system is employed to determine the cellular PPARgamma activity of PPAR agonists. It is based on the use of a luciferase reporter plasmid (pGL3basic-5×GAL4-TK) and of a PPARgamma expression plasmid (pcDNA3-GAL4-humanPPARgammaLBD). Both plasmids are transiently transfected into human embryonic kidney cells (HEK cells). There is then expression in these cells of the fusion protein GAL4-humanPPARgammaLBD which binds to the GAL4 binding sites of the reporter plasmid. In the presence of a PPARgamma-active ligand, the activated fusion protein GAL4-humanPPARgammaLBD induces expression of the luciferase reporter gene, which can be detected in the form of a chemiluminescence signal after addition of a luciferase substrate. As a difference from the stably transfected PPARalpha reporter cell line, in the cellular PPARgamma assay the two components (luciferase reporter plasmid and PPARgamma expression plasmid) are transiently transfected into HEK cells because stable and permanent expression of the PPARgamma fusion protein is cytotoxic.
The luciferase reporter plasmid pGL3basic-5×GAL4-TK is based on the vector pGL3basic from Promega. The reporter plasmid is prepared by cloning five binding sites of the yeast transcription factor GAL4 (each binding site with the sequence 5′-CTCGGAGGACAGTACTCCG-3′), together with a 160 bp-long thymidine kinase promoter section (Genbank Accession # AF027128) 5′-upstream into pGL3basic. 3′-downstream of the thymidine kinase promoter is the complete luciferase gene from Photinus pyralis (Genbank Accession # M15077) which is already a constituent of the plasmid pGL3basic used. The cloning and sequencing of the reporter plasmid pGL3basic-5×GAL4-TK took place in analogy to the description in Sambrook J. et. al. (Molecular cloning, Cold Spring Harbor Laboratory Press, 1989).
The PPARgamma expression plasmid pcDNA3-GAL4-humanPPARgammaLBD was prepared by first cloning the cDNA coding for amino acids 1-147 of the yeast transcription factor GAL4 (Genbank Accession # P04386) into the plasmid pcDNA3 (from Invitrogen) 3′-downstream of the cytomegalovirus promoter. Subsequently, the cDNA of the ligand-binding domain (LBD) of the human PPARgamma receptor (amino acids I152-Y475; Accession # g1480099) 3′-downstream of the GAL4 DNA binding domain. Cloning and sequencing of the PPARgamma expression plasmid pcDNA3-GAL4-humanPPARgammaLBD again took place in analogy to the description in Sambrook J. et. al. (Molecular cloning, Cold Spring Harbor Laboratory Press, 1989). Besides the luciferase reporter plasmid pGL3basic-5×GAL4-TK and the PPARgamma expression plasmid pcDNA3-GAL4-humanPPARgammaLBD, also used for the cellular PPARgamma assay are the reference plasmid pRL-CMV (from Promega) and the plasmid pBluescript SK(+) from Stratagene. All four plasmids were prepared using a plasmid preparation kit from Qiagen, which ensured a plasmid quality with a minimal endotoxin content, before transfection into HEK cells.
The activity of PPARgamma agonists is determined in a 4-day assay which is described below. Before the transfection, HEK cells are cultivated in DMEM (#41965-039, Invitrogen) which is mixed with the following additions: 10% FCS (#16000-044, Invitrogen), 1% penicillin-streptomycin solution (#15140-122, Invitrogen) and 2 mM L-glutamine (#25030-024, Invitrogen).
Firstly, solution A, a transfection mixture which contains all four plasmids previously described in addition to DMEM, is prepared. […]

The next assay has as its target T2, human PPARdelta (Homo sapiens, UniProt Q03181).
T2 construct: amino acids S139-Y441; expressed in transfected cells; host or cells: HEK cells, stably transfected (pcDNA3, CMV promoter)
T2 sequence (Q03181 139-441): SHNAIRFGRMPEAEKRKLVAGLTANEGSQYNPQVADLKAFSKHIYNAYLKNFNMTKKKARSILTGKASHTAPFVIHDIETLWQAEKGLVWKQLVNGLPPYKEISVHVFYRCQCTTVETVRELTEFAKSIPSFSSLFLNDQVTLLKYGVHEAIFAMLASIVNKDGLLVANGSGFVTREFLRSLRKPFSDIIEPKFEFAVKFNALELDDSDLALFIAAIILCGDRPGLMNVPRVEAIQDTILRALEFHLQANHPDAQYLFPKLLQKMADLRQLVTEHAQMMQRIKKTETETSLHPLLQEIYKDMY
The assay is described as follows: Cellular PPARdelta assay (stably transfected HEK luciferase reporter cell line). It counts as cell-based. The conditions noted are these: GR-GAL4-humanPPARdelta-LBD. The method, then: The PPARalphareporter cell line is cultivated to 80% confluence in DMEM (#41965-039, Invitrogen) which is mixed with the following additions: 10% cs-FCS (fetal calf serum; #SH-30068.03, Hyclone), 0.5 mg/ml zeocin (#R250-01, Invitrogen), 0.5 mg/ml G418 (#10131-027, Invitrogen), 1% penicillin-streptomycin solution (#15140-122, Invitrogen) and 2 mM L-glutamine (#25030-024, Invitrogen). The cultivation takes place in standard cell culture bottles (# 353112, Becton Dickinson) in a cell culture incubator at 37° C. in the presence of 5% CO2. The 80%-confluent cells are washed once with 15 ml of PBS (#14190-094, Invitrogen), treated with 3 ml of trypsin solution (#25300-054, Invitrogen) at 37° C. for 2 min, taken up in 5 ml of the DMEM described and counted in a cell counter. After dilution to 500.000 cells/ml, 35,000 cells are seeded in each well of a 96 well microtiter plate with a clear plastic base (#3610, Corning Costar). The plates are incubated in the cell culture incubator at 37° C. and 5% CO2 for 24 h.
PPARalpha agonists to be tested are dissolved in DMSO in a concentration of 10 mM. This stock solution is diluted in DMEM (#41965-039, Invitrogen) which is mixed with 5% cs-FCS (#SH-30068.03, Hyclone), 2 mM L-glutamine (#25030-024, Invitrogen) and the previously described antibiotics (zeocin, G418, penicillin and streptomycin). Test substances are tested in 11 different concentrations in the range from 10 μM to 100 pM.
The medium of the PPARalpha reporter cell line seeded on day 1 is completely removed by aspiration, and the test substances diluted in medium are immediately added to the cells. The dilution and addition of the substances is carried out by a robot (Beckman FX). The final volume of the test substances diluted in medium is 100 μl per well of a 96 well microtiter plate. The DMSO concentration in the assay is less than 0.1% v/v in order to avoid cytotoxic effects of the solvent.
The assay plates are incubated in an incubator at 37° C. and 5% CO2 for 24 h.
The PPARalpha reporter cells treated with the test substances are removed from the incubator, and the medium is aspirated off. The cells are lyzed by pipetting 50 μl of Bright Glo reagent (from Promega) into each well of a 96 well microtiter plate. After incubation at room temperature in the dark for 10 minutes, the microtiter plates are measured in the luminometer (Trilux from Wallac). The measuring time for each well of a microtiter plate is 1 sec.
The raw data from the luminometer are transferred into a Microsoft Excel file. Dose-effect plots and EC50 values of PPAR agonists are calculated using the XL.Fit program as specified by the manufacturer (IDBS).
The potency of substances which bind to human PPARdelta and activate it in an agonistic manner is analyzed using a stably transfected HEK cell line (HEK=human embryo kidney) which is referred to here as PPARdelta reporter cell line. In analogy to the assay described for PPARalpha, the PPARdelta reporter cell line also contains two genetic elements, a luciferase reporter element (pdeltaM-GAL4-Luc-Zeo) and a PPARdelta fusion protein (GR-GAL4-humanPPARdelta-LBD) which mediates expression of the luciferase reporter element depending on a PPARdelta ligand. […] The luciferase which is formed can be detected by means of chemiluminescence via an appropriate substrate. […]

The conditions of assay [1]: diabetic animal model; cited from earlier work.
The conditions of assay [2]: obese, insulin resistant rhesus monkeys; cited from earlier work.
For assay [3] the following is noted: two weeks clinical trials in healthy volunteers; cited from earlier work.
For assay [4] the following is noted: rhesus and cynomolgus monkeys; cited from earlier work.

Usually EC50 stands for the concentration that produces a half-maximal response.

In the case of `CC(C)c1nnc(NS(=O)(=O)c2ccc(C3(CNc4ncc(C(F)(F)F)cc4Cl)CCCCC3)cc2)s1` [Example 1, 4-{1-[(3-Chloro-5-trifluoromethyl-pyridin-2-ylamino)-methyl]-cyclohexyl}-N-(5-isopropyl-[1,3,4]thiadiazol-2-yl)-benzenesulfonamide], the concentration giving a half-maximal response (EC50) on human PPARgamma turned out to be 26 nM; at human PPARdelta, 60 nM.

For the compound `CC(C)c1nnc(NS(=O)(=O)c2ccc([C@@H]3CCC[C@H]3Nc3ncc(C(F)(F)F)cc3Cl)cc2)s1` [Example 2, Trans-4-[(1S,2R)-2-(3-chloro-5-trifluoromethyl-pyridin-2-ylamino)-cyclopentyl]-N-(5-isopropyl-[1,3,4]thiadiazol-2-yl)-benzene-sulfonamide], the 50% effective concentration (EC50) was 647 nM on human PPARgamma and 67 nM at human PPARdelta.

Take `CC(C)c1nnc(NS(=O)(=O)c2ccc([C@@H]3CCC[C@@H]3Nc3ncc(C(F)(F)F)cc3Cl)cc2)s1` [Example 3, Cis-4-[(1S,2R)-2-(3-chloro-5-trifluoromethyl-pyridin-2-ylamino)-cyclopentyl]-N-(5-isopropyl-[1,3,4]thiadiazol-2-yl)-benzene-sulfonamide]: the figures for the EC50 on human PPARgamma and at human PPARdelta were 1800 nM and 1 nM, respectively.

As for `CC(C)c1nnc(NS(=O)(=O)c2ccc(C3(CNc4ncc(C(F)(F)F)cc4Cl)CCCC3)cc2)s1` [Example 4, 4-{1-[(3-Chloro-5-trifluoromethyl-pyridin-2-ylamino)-methyl]-cyclopentyl}-N-(5-isopropyl-[1,3,4]thiadiazol-2-yl)-benzene-sulfonamide], the EC50 was 990 nM at human PPARgamma and 220 nM on human PPARdelta.

In the case of `CC(C)c1nnc(NS(=O)(=O)c2cc3c(cc2Cl)CC(Nc2ncc(C(F)(F)F)cc2Cl)C3)s1` (centres unmarked) [Example 8, 6-Chloro-2-(3-chloro-5-trifluoromethyl-pyridin-2-ylamino)-indan-5-sulfonic acid (5-isopropyl-[1,3,4]thiadiazol-2-yl)amide], the EC50 on human PPARgamma is above 10000 nM; at human PPARdelta, 779 nM.

`CCCc1c(OCCCOc2ccc(OCC(=O)O)cc2)ccc(C(C)=O)c1O` [Example L-165041]: in assay [1], the plasma cholesterol result is on record as “raises plasma cholesterol”.

Turning to `Cc1cc(SCc2sc(-c3ccc(C(F)(F)F)cc3)nc2C)ccc1OCC(=O)O` [GW501516], in assay [2], the HDL-cholesterol entry was “raises”, the insulin levels result is reported as “decreases”, the “plasma LDL-cholesterol” value was “decreases” and the triglycerides entry is “decreases”.

With `CCCc1c(OCCCSc2nnc(SCC(=O)O)s2)ccc(C(C)=O)c1O` [YM-16638], the plasma lipids result in assay [3] is “acts in a similar manner”; in assay [4], “significantly lowers”.
